Test results published in US9610293B2, “Co-micronization product comprising ulipristal acetate” (LABORATOIRE HRA-PHARMA, priority 2012, dated 2017).

How the values were obtained:
[1] = Pharmacokinetic study in rats (plasma UPA by LC/MS/MS); format: in vivo; details: female, OFA(SD), rat, 4 mg UPA per kg, powder into the stomach, pooled plasma
Method: The pharmacokinetic study was carried out on female OFA(SD) rats weighing between 0.206 and 0.251 kg. The animals were deprived of food for 16 hours before the administration of the samples. The animals were placed in cages, the temperature of which was maintained between 20 and 25° C.; the day/night cycles were 12 h each (6 am-6 pm) and the air was conditioned using a ventilation system.
The samples tested are the following: • Comicronizate of ulipristal acetate/SDS, 1/1 ratio • Powder of ulipristal acetate micronized in the absence of any excipient (UPA micronized alone)
A predetermined amount of powder was administered by means of an oesophageal tube using a cannula. The powder was introduced into the stomach of each animal using a catheter. The dose administered corresponds to 4 mg of ulipristal acetate per kg.
Blood samples of 300 μl were taken from the (left or right) jugular of the rats. In order to avoid excessively high blood sampling, the rats were divided into 3 groups of 6 rats as follows:
The samples were collected on heparin tubes and then centrifuged within the hour for 7-8 min at 1600 g at 4° C. At each sampling time, the plasma of the 6 rats of the group is “pooled”.
The ulipristal acetate was assayed by LC/MS/MS under the following conditions: • Mobile phase: Methanol/distilled water (70/30, V/V)+1% acetic acid • Column: BDS Hypersil phenyl, 100×2.1 mm, 5 μm • Elution mode: isocratic • flow rate: 0.400 ml/min • Injection volume: 10.0 μl • Needle cleaning liquid: Acetonitrile/isopropanol/acetone (40/40/20, V/V/V) 2. Results

[2] = In vitro dissolution of UPA from gelatin gel capsules (paddle device, European Pharmacopoeia §2.9.3, 900 ml); format: physicochemical; details: 30 mg UPA capsule, 900 ml gastric pH buffer + 0.1% SDS, 37°C, 50 rpm, mean of 3
Method: The in vitro dissolution test can be carried out using any commercially available device comprising paddles. Example 1 hereinafter presents implementing conditions for determining the in vitro dissolution rate of a comicronizate according to the invention. Briefly, an amount of comicronizate representing 30 mg of active ingredient is placed in a gelatin gel capsule. This gel capsule is then placed in 900 ml of a medium buffered at gastric pH, comprising 0.1% of SDS, at 37±0.5° C., and subjected to stirring at 50 revolutions per minute (rpm) (speed of rotation of the paddles of the dissolution device).
For each comicronizate obtained, hard gelatin gel capsules containing an amount of comicronizate corresponding to 30 mg of UPA per capsule were prepared. The studies of in vitro dissolution of UPA as comicronizate were carried out using these capsules according to the European Pharmacopoeia in §2.9.3, using a paddle dissolution device. For each comicronizate, a gel capsule containing said comicronizate was placed in a bowl of the dissolution device containing 900 ml of a dissolution medium. The dissolution medium is an aqueous solution buffered at gastric pH and comprising 0.1% by weight of SDS. The conditions for carrying out the in vitro dissolutions are the following: • Paddle rotation speed: 50 revolutions per minute (rpm) • Temperature: 37° C.±0.5° C.
The dissolution of the UPA was monitored by spectrophotometry.
By way of control experiment, a gelatin gel capsule containing 30 mg of ulipristal acetate micronized alone (i.e. UPA micronized in the absence of any co-micronization excipient) was used.
For each comicronizate, the dissolution experiment was reproduced 3 times. […]

[3] = chronic administration, 5 mg or 10 mg per day; cited from earlier work
[4] = single dose of 30 mg within 120 hours following unprotected intercourse; cited from earlier work

Compound: CC(=O)O[C@]1(C(C)=O)CCC2C3CCC4=CC(=O)CCC4=C3[C@@H](c3ccc(N(C)C)cc3)C[C@@]21C (stereo partly drawn) [UPA micronized alone, 17α-acetoxy-11β-[4-(N,N-dimethylamino)-phenyl]-19-norpregna-4,9-diene-3,20-dione]
- Tmax ([1]; oral): 1.25 h
- AUC(0-inf) ([1]; po, 4 mg/kg): 1380 ng·h/mL
- AUC(0-t) ([1]; po, 4 mg/kg): 1340 ng·h/mL
- Cmax ([1]; po, 4 mg/kg): 447 ng/mL
- Percentage of UPA released relative to initial amount per gel capsule ([2]; t=0 min): 0.0%
- Percentage of UPA released relative to initial amount per gel capsule ([2]; t=1 min): 0.0%
- Percentage of UPA released relative to initial amount per gel capsule ([2]; t=5 min): 5.5%
- Percentage of UPA released relative to initial amount per gel capsule ([2]; t=7.5 min): 15.00%
- Percentage of UPA released relative to initial amount per gel capsule ([2]; t=10 min): 22.30%
- Percentage of UPA released relative to initial amount per gel capsule ([2]; t=15 min): 30.00%
- Percentage of UPA released relative to initial amount per gel capsule ([2]; t=20 min): 34.30%
- Percentage of UPA released relative to initial amount per gel capsule ([2]; t=20 min, listed as Micronized UPA (in the absence of excipient)): 34.30%
- Percentage of UPA released relative to initial amount per gel capsule ([2]; t=20 min, listed as ulipristal acetate which has been micronized in the absence of excipient): approximately 35%
- Percentage of UPA released relative to initial amount per gel capsule ([2]; t=30 min): 39.50%
- Percentage of UPA released relative to initial amount per gel capsule ([2]; t=45 min): 47.50%
- Percentage of UPA released relative to initial amount per gel capsule ([2]; t=60 min): 53.80%

Compound: CC(=O)O[C@]1(C(C)=O)CCC2C3CCC4=CC(=O)CCC4=C3[C@@H](c3ccc(N(C)C)cc3)C[C@@]21C (stereo partly drawn) [UPA, 17α-acetoxy-11β-[4-(N,N-dimethylamino)-phenyl]-19-norpregna-4,9-diene-3,20-dione]
- Effect on symptoms associated with uterine fibromas [3]: significantly reduce the symptoms associated with uterine fibromas
- Emergency contraceptive effect [4]: makes it possible to prevent an unwanted pregnancy
